We go through 2 compounds from patent US6747024B1, “Heterocyclic compounds and their use as medicines” (Societe de Conseils de Recherches et d'Applications …, priority 1999, dated 2004).

One may read the melting point as the temperature of the solid-liquid transition. `CC(=O)O[C@H]1OCC[C@@H]1NC(=O)[C@H](CC(C)C)NC(=O)c1ccc2c(c1)Nc1ccccc1S2` [Example 18.1, (2R,3S)-3-({(2S)-4-methyl-2-[(10H-phenothiazin-2-ylcarbonyl)amino]-pentanoyl}amino)tetrahydro-2-furanyl acetate] displayed a melting point of 199 to 201 °C.
To `CC(=O)O[C@@H]1OCC[C@@H]1NC(=O)[C@H](CC(C)C)NC(=O)c1ccc2c(c1)Nc1ccccc1S2` [Example 18.2, (2S,3S)-3-({(2S)-4-methyl-2-[(10H-phenothiazin-2-ylcarbonyl)amino]-pentanoyl}amino)tetrahydro-2-furanyl acetate] belongs 205 to 208 °C.
